Results published in patent publication US10577365B2, “Derivatives of quinoline as inhibitors of DYRK1A and/or DYRK1B kinases” (Felicitex Therapeutics, Inc., priority 2016, dated 2020).
Counter-ions that a name gives are not always drawn.

Experiments:
DYRK1A = molecular target: T1, DYRK1A (Homo sapiens, UniProt Q13627); assay: DYRK1A in vitro kinase assay (ADP-Glo); assay type: biochemical; conditions: ATP 70 μM (Km), substrate 3 μM, enzyme 2 nM or 0.7 nM, 30 min, rt
T1 construct: purchased Carna Bioscence (Carna Biosciences) 04-130

DYRK1B = molecular target: T2, DYRK1B (Homo sapiens, UniProt Q9Y463); assay: DYRK1B in vitro kinase assay (ADP-Glo); assay type: biochemical; conditions: ADP-Glo assay, ATP 15 μM (Km), substrate 7 μM, enzyme 1 nM or 0.3 nM, 1 h, rt; read-out: DYRK1B IC50
T2 construct: purchased Carna Bioscence (Carna Biosciences) 04-131
T2 sequence (Q9Y463 whole entry): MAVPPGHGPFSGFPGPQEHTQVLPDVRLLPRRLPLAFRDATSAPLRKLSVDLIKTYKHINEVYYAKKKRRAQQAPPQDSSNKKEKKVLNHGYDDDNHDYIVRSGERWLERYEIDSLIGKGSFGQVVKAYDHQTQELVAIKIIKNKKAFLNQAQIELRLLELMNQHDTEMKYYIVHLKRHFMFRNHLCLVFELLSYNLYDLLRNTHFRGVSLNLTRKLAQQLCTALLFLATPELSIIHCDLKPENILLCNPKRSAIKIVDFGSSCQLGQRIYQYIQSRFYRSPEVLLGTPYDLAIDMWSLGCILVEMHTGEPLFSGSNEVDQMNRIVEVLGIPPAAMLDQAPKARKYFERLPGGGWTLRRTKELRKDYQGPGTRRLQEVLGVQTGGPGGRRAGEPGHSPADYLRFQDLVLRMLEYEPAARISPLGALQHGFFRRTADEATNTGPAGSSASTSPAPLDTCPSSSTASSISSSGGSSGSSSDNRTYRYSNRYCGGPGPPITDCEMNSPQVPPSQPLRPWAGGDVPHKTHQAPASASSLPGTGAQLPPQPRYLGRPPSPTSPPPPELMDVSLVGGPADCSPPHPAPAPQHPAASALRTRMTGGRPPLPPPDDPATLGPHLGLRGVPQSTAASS

Row | IC50 (DYRK1A) [nM] | IC50 (DYRK1B) [nM] | Structure (SMILES)
1 | > 100 | 10 to 100 | COc1cc(-c2c[nH]c3ncc(C(N)=O)cc23)cc2c(-c3cccnc3)ccnc12 [Example 45, 3-[8-Methoxy-4-(pyridin-3-yl)quinolin-6-yl]-1H-pyrrolo[2,3-b]pyridine-5-carboxamide]
2 | < 10 | < 10 | CC(=O)Nc1cnc2ccc(-c3c[nH]c4ncc(C(=O)NCc5cccnc5)cc34)cc2c1 [Example 62, 3-(3-Acetamidoquinolin-6-yl)-N-(pyridin-3-ylmethyl)-1H-pyrrolo[2,3-b]pyridine-5-carboxamide]
3 | 10 to 100 | < 10 | N[C@H]1CC[C@H](Nc2c(NCC3CCOCC3)cnc3ccc(-c4c[nH]c5ncc(C(=O)NCc6cccnc6)cc45)cc23)CC1 [Example 60, 3-{4-[(4-Aminocyclohexyl)amino]-3-[(oxan-4-ylmethyl)amino]quinolin-6-yl}-N-(pyridin-3-ylmethyl)-1H-pyrrolo[2,3-b]pyridine-5-carboxamide hydrochloride]
4 | < 10 | < 10 | CNC(=O)c1cnc2[nH]cc(-c3cc(F)c4nccc(-c5cnccc5C)c4c3)c2c1 [Example 44, N-Methyl-3-[8-fluoro-4-(4-methylpyridin-3-yl)quinolin-6-yl]-1H-pyrrolo[2,3-b]pyridine-5-carboxamide]

Second part, the compound before the results:

Row | Structure (SMILES) | IC50 (DYRK1A) [nM] | IC50 (DYRK1B) [nM]
5 | CNC(=O)c1cnc2[nH]cc(-c3ccc4nccc(N5CCOCC5)c4c3)c2c1 [Example 23, N-Methyl-3-[4-(morpholin-4-yl)quinolin-6-yl]-1H-pyrrolo[2,3-b]pyridine-5-carboxamide] | < 10 | < 10
6 | O=C(NCc1ccccc1)c1cnc2[nH]cc(-c3cc(Cl)c4ncccc4c3)c2c1 [Example 32, N-Benzyl-3-(8-chloroquinolin-6-yl)-1H-pyrrolo[2,3-b]pyridine-5-carboxamide] | 10 to 100 | < 10
7 | NCCCNC(=O)c1cnc2[nH]cc(-c3cc(Cl)c4ncccc4c3)c2c1 [Example 34, N-(3-Aminopropyl)-3-(8-chloroquinolin-6-yl)-1H-pyrrolo[2,3-b]pyridine-5-carboxamide hydrochloride] | < 10 | < 10
8 | c1cnc2[nH]cc(-c3ccc4nccc(-c5ccncc5)c4c3)c2c1 [Example 7, 4-(Pyridin-4-yl)-6-{1H-pyrrolo[2,3-b]pyridin-3-yl}quinoline] | < 10 | < 10
